A value given as a limit tells only on which side of the number the result lay.

In assay [1] the test system is A549. The assay is described as follows: Cytotoxicity against human A549 cells assessed as cell viability after 72 hrs by MTT assay. Conditions: A549, 72 h. The assay is classed as functional, cell-based. For orientation: Tetrazolium assays rely on reduction of a dye to a coloured formazan, in cell work by metabolically active cells.
Assay [2] deals with HeLa. The assay is described as follows: Cytotoxicity against human HeLa cells assessed as cell viability after 48 hrs by MTT assay. In kind it is functional, cell-based.
In assay [3] the test system is A549. The assay is described as follows: Cytotoxicity against human A549 cells assessed as cell viability after 48 hrs by MTT assay. The assay is classed as functional, cell-based. Conditions: A549, 48 h.
Assay [4] relates to MCF7. As to the kind of experiment: Cytotoxicity against human MCF7 cells assessed as cell viability after 48 hrs by MTT assay. In kind it is functional, cell-based. Particulars: MCF7, 48 h.
Assay [5] deals with Vero. The assay is described as follows: Cytotoxicity against african green monkey Vero cells assessed as cell viability after 48 hrs by MTT assay. In kind it is cell-based. Particulars: Chlorocebus sabaeus.
For assay [6], the system named is HeLa. As to the kind of experiment: Cytotoxicity against human HeLa cells assessed as cell viability after 72 hrs by MTT assay. The assay is classed as functional, cell-based.
The test system of assay [7] is MCF7. The assay is described as follows: Cytotoxicity against human MCF7 cells assessed as cell viability after 72 hrs by MTT assay. The assay is classed as functional, cell-based. Conditions: MCF7, 72 h.
Assay [8] has as its system Vero. The assay is described as follows: Selectivity index, ratio of IC50 for african green monkey Vero cells to IC50 for human MCF7 cells after 48 hrs.
Assay [9] relates to Vero. The assay is described as follows: Cytotoxicity against african green monkey Vero cells assessed as cell viability after 72 hrs by MTT assay. Particulars: Chlorocebus sabaeus. In kind it is cell-based.

Consider `CC1=C(CO)C(=O)O[C@@H]([C@@H](C)[C@H]2CC[C@H]3[C@@H]4C[C@H](O)[C@]5(O)[C@@H](O)C=CC(=O)[C@]5(C)[C@H]4CC[C@]23C)C1`, for which the IC50 (in general, the concentration needed to halve the response being measured) in [1] is 36.4 µM; in assay [2], more than 40 µM; in assay [3], more than 40 µM; in assay [4] it was 38.4 µM; in assay [5], 40 µM; in assay [6] it was 31.4 µM. Besides, the IC50 in assay [7] was determined as 36.2 µM; in [9], 26.9 µM. Moreover, the “Ratio IC50” value in [8] is on record as 1.

On to `Sc1ncnc2nc[nH]c12` [MERCAPTOPURINE ANHYDROUS], for which, in assay [8], the “Ratio IC50” value is recorded as 48.3.

As for `CC1=C(C)C(=O)O[C@@H]([C@@H](C)C2=CC[C@H]3[C@@H]4C[C@H]5O[C@]56[C@@H](O)C=CC(=O)[C@]6(C)[C@H]4CC[C@]23C)C1`, the IC50 is 5.5 µM in assay [1]; 21.5 µM in assay [2]; 40 µM in [3]; 12.6 µM in assay [4]; 4.7 µM in assay [5]; 8 µM in assay [6]. Besides, the IC50 in assay [7] was 2.2 µM; in [9] it was 3.1 µM. The “Ratio IC50” value in [8] is less than 1.

Regarding `CC(=O)OCC1=C(C)C[C@H]([C@@H](C)[C@H]2CC[C@H]3[C@@H]4C[C@H]5O[C@]56[C@@H](O)C=CC(=O)[C@]6(C)[C@H]4CC[C@]23C)OC1=O`, the half-inhibitory concentration (IC50) in assay [1] stood at 4.4 µM; in assay [2] it was 7.7 µM; in assay [3], 6.7 µM; in [4], 5.3 µM; in [5] it was 11.4 µM; in assay [6], 4.7 µM. In addition, the half-maximal inhibitory concentration (IC50) was found to be 2 µM in assay [7] and 8.5 µM in assay [9]. Also, the “Ratio IC50” value in assay [8] is given as 2.2.

For the compound `CC1=C(CO)C(=O)O[C@@H]([C@@H](C)[C@H]2CC[C@H]3[C@@H]4C[C@H](Cl)[C@]5(O)[C@@H](O)C=CC(=O)[C@]5(C)[C@H]4CC[C@]23C)C1`, the IC50 in assay [1] came to 8.6 µM; in [2], 13.4 µM; in [3], 14.7 µM; in assay [4] it was 7.5 µM; in assay [5], 14.8 µM; in assay [6], 12.1 µM. The half-maximal inhibitory concentration (IC50) in assay [7] is 1.3 µM; in [9] it was 7.8 µM. Besides, the “Ratio IC50” value in assay [8] was determined as 2.

As for `CC1=C(CO)C(=O)O[C@@H]([C@@H](C)[C@H]2CC[C@H]3[C@@H]4C[C@@H](O)[C@]5(C=O)C=CC(=O)[C@]5(C)[C@H]4CC[C@]23C)C1`, the concentration for half-maximal inhibition (IC50) in assay [1], in assay [2], in assay [3], in assay [4], in assay [5] and in [6] was more than 40 µM throughout. The IC50 in [7] and in assay [9] was more than 40 µM each time.

With `CC1=C(COC(C)(C)OC=O)C(=O)O[C@@H]([C@@H](C)[C@H]2CC[C@H]3[C@@H]4C[C@H]5O[C@]56[C@@H](O)C=CC(=O)[C@]6(C)[C@H]4CC[C@]23C)C1`, the concentration for half-maximal inhibition (IC50) in assay [1] was more than 40 µM; in [2], more than 40 µM; in [3], more than 40 µM; in [4] it was 26.9 µM; in assay [5], 27.8 µM; in assay [6], 37.3 µM. In addition, the concentration for half-maximal inhibition (IC50) in assay [7] is 18.3 µM; in assay [9], 18.5 µM. Moreover, in assay [8], the “Ratio IC50” value is listed as 1.

Regarding `CC1=C(CO)C(=O)O[C@@H]([C@@H](C)[C@H]2CC[C@H]3[C@@H]4C[C@H]5O[C@]56[C@@H](O)CCC(=O)[C@]6(C)[C@H]4CC[C@]23C)C1`, the IC50 in assay [1] was determined as 17.2 µM; in [2], 28.9 µM; in assay [3], 33.5 µM; in [4] it was 14.4 µM; in assay [5], 15.5 µM; in [6], 19.3 µM. Also, the IC50 was 5.4 µM in assay [7] and 9 µM in assay [9]. Also, the “Ratio IC50” value in [8] was 1.1.

Turning to `CC(=O)OCC1=C(C)C[C@H]([C@@H](C)[C@H]2CC[C@H]3[C@@H]4C[C@H]5O[C@]56[C@@H](O)[C@@H](O)CC(=O)[C@]6(C)[C@H]4CC[C@]23C)OC1=O`, the IC50 in assay [1] was 21.3 µM; in assay [2], 8.9 µM; in [3] it was 18.4 µM; in assay [4] it was 9.2 µM; in assay [5] it was 8.6 µM; in assay [6], 8.3 µM. For the same compound, the concentration for half-maximal inhibition (IC50) came to 7.1 µM in [7] and 4.9 µM in assay [9]. Moreover, the “Ratio IC50” value in assay [8] was less than 1.

For `CC1=C(CO)C(=O)O[C@@H]([C@@H](C)[C@H]2CC[C@H]3[C@@H]4C[C@H]5O[C@]56C(=O)C=CC(=O)[C@]6(C)[C@H]4CC[C@]23C)C1`, the IC50 came to 12.8 µM in [1]; 18.4 µM in assay [2]; 25.4 µM in assay [3]; 3.2 µM in assay [4]; 7.7 µM in assay [5]; 15.2 µM in assay [6]. Moreover, the IC50 was found to be 2.1 µM in assay [7] and 1.5 µM in assay [9]. Also, in assay [8], the “Ratio IC50” value is given as 2.4.

Turning to `CC1=C(CO)C(=O)O[C@@H]([C@@H](C)[C@H]2CC[C@H]3[C@@H]4C[C@@H](O)[C@]5(C=O)CCC(=O)[C@]5(C)[C@H]4CC[C@]23C)C1`, the half-maximal inhibitory concentration (IC50) in [1], in assay [2], in [3], in [4], in assay [5] and in assay [6] was more than 40 µM each time. In addition, the concentration for half-maximal inhibition (IC50) in assay [7] and in assay [9] was more than 40 µM each time.

Regarding `CC1=C(CO)C(=O)O[C@@H]([C@@H](C)[C@H]2CC[C@H]3[C@@H]4C[C@@H](O)[C@@]5(O)[C@@H](O)[C@@H](O)CC(=O)[C@]5(C)[C@H]4CC[C@]23C)C1`, the IC50 in assay [1], in assay [2], in assay [3], in assay [4], in assay [5] and in [6] was more than 40 µM each time. The IC50 in assay [7] and in assay [9] was more than 40 µM throughout.

Turning to `CC1=C(C)C(=O)O[C@@H]([C@@H](C)[C@H]2CC[C@H]3[C@@H]4C[C@@H](O)[C@]5(C=O)CCC(=O)[C@]5(C)[C@H]4CC[C@]23C)C1`, the 50% inhibitory concentration (IC50) in assay [1], in assay [2], in [3], in assay [4], in assay [5] and in assay [6] was more than 40 µM each time. In addition, the half-inhibitory concentration (IC50) in [7] and in assay [9] was more than 40 µM each time.

Consider `CC1=C(CO)C(=O)O[C@@H](/C(C)=C2\[C@@H](O)C[C@H]3[C@@H]4C[C@H]5O[C@]56[C@@H](O)C=CC(=O)[C@]6(C)[C@H]4CC[C@]23C)C1`, for which the half-inhibitory concentration (IC50) in assay [1] is more than 40 µM; in [2], 40 µM; in assay [3], more than 40 µM; in assay [4] it was 27.7 µM; in assay [5], more than 40 µM; in assay [6], 31.1 µM. Besides, the IC50 in assay [7] was 6 µM; in assay [9], more than 40 µM. For the same compound, in assay [8], the “Ratio IC50” value is listed as less than 1.

With `CC1=C(CO)C(=O)O[C@@H]([C@@H](C)[C@@]2(O)CC[C@H]3[C@@H]4C[C@H]5O[C@]56[C@@H](O)C=CC(=O)[C@]6(C)[C@H]4CC[C@@]32C)C1`, the 50% inhibitory concentration (IC50) is 31.7 µM in [1]; 17.7 µM in assay [2]; more than 40 µM in assay [3]; 16.3 µM in assay [4]; 28.8 µM in assay [5]; 19.8 µM in assay [6]. For the same compound, the IC50 in assay [7] came to 10.3 µM; in assay [9], 21.8 µM. The “Ratio IC50” value in assay [8] was 1.8.

Source of the values: ChEMBL document CHEMBL2046268 (Eur J Med Chem, 2012).
